In patent US4444775A, “Substituted imidazo[1,5-A]pyridines” (Ciba-Geigy Corporation, priority 1982, dated 1984):

How the values were obtained:
[1] = molecular target: T1, prostacyclin (PGI2) synthetase (microsomal fraction of bovine aorta) (Bos taurus, UniProt Q29626); test: in-vitro effect on prostacyclin (PGI2) synthetase (6-keto-PGF1α/PGE2 ratio); format: biochemical; settings: read-out: IC50 for inhibition of prostacyclin synthetase
T1 construct: crude PGI2 synthetase in the form of a microsomal fraction of bovine aorta; from tissue; host or cells: bovine aorta, microsomal fraction
T1 sequence (Q29626 1-500): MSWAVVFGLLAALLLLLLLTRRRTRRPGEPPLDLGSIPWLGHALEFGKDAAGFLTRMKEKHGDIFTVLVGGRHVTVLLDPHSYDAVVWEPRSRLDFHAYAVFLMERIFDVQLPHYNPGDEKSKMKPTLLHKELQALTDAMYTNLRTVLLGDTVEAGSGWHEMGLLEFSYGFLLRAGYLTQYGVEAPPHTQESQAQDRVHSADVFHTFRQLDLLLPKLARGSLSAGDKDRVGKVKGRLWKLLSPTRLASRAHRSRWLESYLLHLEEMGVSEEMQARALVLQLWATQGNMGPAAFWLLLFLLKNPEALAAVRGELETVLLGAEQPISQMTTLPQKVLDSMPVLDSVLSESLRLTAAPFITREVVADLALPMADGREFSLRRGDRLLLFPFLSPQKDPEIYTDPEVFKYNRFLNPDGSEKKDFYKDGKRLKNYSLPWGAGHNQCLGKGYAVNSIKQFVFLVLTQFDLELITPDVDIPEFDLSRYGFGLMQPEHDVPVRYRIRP
Procedure: The in-vitro effect on prostacyclin (PGI2) synthetase is measured analogous to the method of Sun et al., Prostaglandins 14, 1055 (1977);
The testing procedure is as follows:
^14 C-Arachidonic acid is incubated with an enzyme mixture consisting of solubilized and partially purified prostaglandin cyclo-oxygenase from sheep seminal vesicles and crude PGI2 synthetase in the form of a microsomal fraction of bovine aorta.
Test compound (dissolved in buffer, or if necessary, in a small amount of ethanol) is placed in the incubation medium. The reaction mixture is incubated in 100 mM Tris HCl (pH 7.5) for 30 minutes at 37° C., acidified to pH 3 and extracted into ethyl acetate. The extract is evaporated to dryness; the residue is dissolved in acetone, spotted on thin-layer plates and chromatographed in a solvent system described by Sun et al. The radioactive zones are located with a scanner; those corresponding to 6-keto-PGF1 α (a stable end product of prostacyclin biotrasformation) and PGE2 are transferred to liquid scintillation vials and counted. The ratio of counts for 6-keto-PGF1 α/PGE2 is calculated for each concentration of test compound used. IC50 values for inhibition are determined graphically as the concentration of test compound at which the ratio of 6-keto-PGF1 α/PGE2 is reduced to 50% of the control value.

bleeding time = test: prolongation of bleeding time in the rat; format: in vivo; settings: rats, dose of about 1 mg/kg i.p. or lower
Description: For example, in thromboembolism, specific inhibition of the enzyme thromboxane synthetase reduces arachidonic acid induced platelet aggregation involved in clot formation. Experimentally, prolongation of bleeding time in the rat is indicative of a beneficial antithrombotic effect.

[2] = tested on: arachidonic acid induced pulmonary obstruction; test: protection against sudden death due to arachidonic acid induced pulmonary obstruction; format: in vivo; settings: mice, orally, 100 mg/kg
[3] = tested on: plasma thromboxane B2 and 6-keto-PGF1α; test: reduction of plasma levels of thromboxane in vivo after arachidonic acid challenge; settings: guinea pig
Procedure: The reduction of plasma levels of thromboxane is determined in vivo on administration of the test compound to guinea pigs in the following manner:
Guinea pigs are dosed with vehicle or test drug and injected intraperitoneally with arachidonic acid (40 mg/kg) 2 hours later. Blood is collected for analysis 1 hour after the arachidonic acid challenge. A single aliquot of each plasma sample is assayed for thromboxane B2 and another aliquot for 6-keto-PGF1 α, the stable metabolites of thromboxane A2 and prostacyclin (PGI2) respectively.

[4] = molecular target: T2, thromboxane synthetase from lysed human platelets (Homo sapiens, UniProt P24557); test: in vitro inhibition of the thromboxane synthetase enzyme (TxB2/PGF2α+β ratio from 14C-arachidonic acid); format: biochemical; settings: human platelet microsomal enzyme, 30 minutes incubation
T2 construct: crude microsomal preparation of thromboxane synthetase from lysed human platelets; from tissue; host or cells: human platelets, lysed; crude microsomal preparation
T2 sequence (P24557 1-533): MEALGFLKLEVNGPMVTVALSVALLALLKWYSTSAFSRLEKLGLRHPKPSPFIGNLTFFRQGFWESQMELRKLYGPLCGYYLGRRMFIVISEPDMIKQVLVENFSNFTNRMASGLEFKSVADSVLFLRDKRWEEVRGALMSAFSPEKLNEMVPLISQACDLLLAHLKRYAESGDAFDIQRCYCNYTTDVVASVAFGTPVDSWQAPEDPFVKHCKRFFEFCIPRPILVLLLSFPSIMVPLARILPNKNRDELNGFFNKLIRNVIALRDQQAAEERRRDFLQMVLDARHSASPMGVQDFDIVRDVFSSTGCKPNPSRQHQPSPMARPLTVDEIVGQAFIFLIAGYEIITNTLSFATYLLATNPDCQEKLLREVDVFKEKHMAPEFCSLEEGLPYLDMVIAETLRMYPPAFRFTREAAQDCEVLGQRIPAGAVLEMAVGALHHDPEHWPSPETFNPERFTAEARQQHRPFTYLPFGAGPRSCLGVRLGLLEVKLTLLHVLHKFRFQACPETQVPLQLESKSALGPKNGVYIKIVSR
Procedure: Res. Comm. 74, 1432 (1977); the testing procedure is as follows:
The test compound (dissolved in buffer, or if necessary, in a small amount of ethanol) is added to the incubation medium. […] The radioactive products and excess substrate are extracted into ethyl acetate; the extract is evaporated to dryness; the residue is dissolved in acetone, spotted on thin-layer plates and chromatographed in the solvent system toluene: acetone: glacial acetic acid (100 volumes: 100 volumes: 3 volumes).

[5] = molecular target: T3, prostaglandin cyclooxygenase (sheep seminal vesicle microsomes) (Ovis aries, UniProt P05979); test: in-vitro effect on prostaglandin cyclooxygenase (conversion of 14C-arachidonic acid to PGE2); format: biochemical; settings: read-out: IC50 for inhibition of cyclooxygenase
T3 construct: Lyophilized sheep seminal vesicle microsomes are utilized as the prostaglandin-synthesizing enzyme preparation; from tissue; host or cells: sheep seminal vesicle microsomes, lyophilized
T3 sequence (P05979 25-600): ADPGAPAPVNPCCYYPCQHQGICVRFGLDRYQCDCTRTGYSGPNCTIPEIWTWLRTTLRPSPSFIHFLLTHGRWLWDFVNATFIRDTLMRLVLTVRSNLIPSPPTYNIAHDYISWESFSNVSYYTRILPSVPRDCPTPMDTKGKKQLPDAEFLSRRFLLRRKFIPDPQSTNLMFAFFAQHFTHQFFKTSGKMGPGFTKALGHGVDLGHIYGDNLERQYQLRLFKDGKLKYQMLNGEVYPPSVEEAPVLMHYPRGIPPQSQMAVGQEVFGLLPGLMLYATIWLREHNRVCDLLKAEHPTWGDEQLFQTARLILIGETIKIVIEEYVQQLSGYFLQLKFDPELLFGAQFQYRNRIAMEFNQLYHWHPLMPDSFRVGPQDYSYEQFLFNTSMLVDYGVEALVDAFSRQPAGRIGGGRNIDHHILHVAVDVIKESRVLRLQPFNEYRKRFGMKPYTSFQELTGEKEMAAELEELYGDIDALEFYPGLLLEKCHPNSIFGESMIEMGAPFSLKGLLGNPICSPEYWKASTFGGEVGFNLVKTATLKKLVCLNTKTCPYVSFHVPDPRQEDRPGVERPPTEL
Procedure: The in-vitro effect on prostaglandin cyclooxygenase is measured by a modification of the method of Takeguchi et al described in Biochemistry 10, 2372 (1971); the testing procedure is as follows: Lyophilized sheep seminal vesicle microsomes are utilized as the prostaglandin-synthesizing enzyme preparation. The conversion of ^14 C-arachidonic acid to PGE2 is measured. Test compounds (dissolved in buffer, or if necessary, in small amount of ethanol) are added to the incubation mixture. The prostaglandins are extracted and separated by thin-layer chromatography; the plates are scanned, the radioactive zones corresponding to PGE2 are transferred to liquid scintillation vials and counted for radioactivity. IC50 values for inhibition are determined graphically as the concentration of test compound causing a 50% reduction in the amount of PGE2 synthesized.

Which results are given for `O=C(O)CCCCCc1cccc2cncn12` [Example 2, 5-(5-carboxypentyl)-imidazo[1,5-a]pyridine]?
IC50 [1]: > 100 µM; bleeding time (bleeding time): prolongs bleeding time; protection against sudden death [2]: protects against sudden death; decrease with respect to prostacyclin (plasma 6-keto-PGF1α) ([3]; oral dose 0.25 mg/kg or higher doses): no significant decrease; reduction of plasma levels of thromboxane B2 ([3]; oral dose as low as 0.25 mg/kg): over 50%; IC50 [4]: ~0.003 µM; IC50 [5]: > 100 µM
